Assay results reported in the NIST ThermoML archive (doi:10.1021/acs.jced.6b00043).

Conditions: 1008.1 K; Crystal; Closed cell (Static) method

vapor or sublimation pressure: 1.552 kPa
SMILES: O=C([O-])[O-].[Li+].[Li+] [lithium carbonate]
